Like-named read-outs stand apart in the source and are kept apart here.
Columns and labels:
[1] = log P by HPLC on reversed-phase column (EEC Directive 79/831 Annex V.A8); format: physicochemical
Description: The log p values reported in the above tables and preparation examples are determined in accordance with EEC Directive 79/831 Annex V.A8 by means of HPLC (high performance liquid chromatography) on a reversed-phase column (C 18). Temperature: 43° C.
Determination is carried out in the acidic range at a pH of 2.3 using 0.1% aqueous phosphoric acid and acetonitrile as mobile phases; linear gradient from 10% acetonitrile to 90% acetonitrile. The values are marked in the tables with ^a).
Determination takes place in the neutral range at a pH of 7.5 with 0.01-molar aqueous phosphate buffer solution and acetonitrile as mobile phases; linear gradient from 10% acetonitrile to 90% acetonitrile. The values are marked in the tables with ^b).
The calibration is carried out using unbranched alkan-2-ones (having from 3 to 16 carbon atoms) whose logP values are known (logP values determined on the basis of the retention times, using linear interpolation between two successive alkanones).

[2] = test system: caterpillars of the cotton bollworm (Heliothis armigera); test: Heliothis armigera test (soya bean shoots dipped); format: in vivo; details: kill, 20 ppm active compound
Description: (§1) [table] To produce a suitable preparation of active compound, 1 part by weight of active compound is mixed with the stated amounts of solvent and emulsifier, and the concentrate is diluted with emulsifier-containing water to the desired concentration. Soya bean shoots (Glycine max) are treated by being dipped into the preparation of active compound of the desired concentration and are populated with caterpillars of the cotton bollworm (Heliothis armigera) whilst the leaves are still moist. After the desired period of time, the kill in % is determined. 100% means that all aphids have been killed; 0% means that none of the caterpillars has been killed.

[3] = test system: larvae of the mustard beetle (Phaedon cochleariae); test: Phaedon larvae test (cabbage leaves dipped); format: in vivo; details: 168 h, kill, 7 d, read-out: Efficacy in % after 7 d; for pest or weed control at 100 ppm: 100 ppm active compound
Description: as §1, with “concentration. Cabbage leaves (Brassica oleracea)” for “concentration. Soya bean shoots (Glycine max)”, “with larvae” for “with caterpillars”, “the mustard beetle (Phaedon cochleariae)” for “the cotton bollworm (Heliothis armigera)”, “all beetle larvae” for “all aphids”, “the beetle larvae” for “the caterpillars”

[4] = test system: cabbage moth (Plutella xylostella) caterpillars; test: Plutella test (cabbage leaves dipped); format: in vivo; details: kill
Description: (§2) [table] To produce a suitable preparation of active compound, 1 part by weight of active compound is mixed with the stated amounts of solvent and emulsifier, and the concentrate is diluted with emulsifier-containing water to the desired concentration. Cabbage leaves (Brassica oleracea) are treated by being dipped into the preparation of active compound of the desired concentration and are populated with cabbage moth (Plutella xylostella) caterpillars whilst the leaves are still moist. After the desired period of time, the kill in % is determined. 100% means that all caterpillars have been killed; 0% means that none of the caterpillars has been killed.

[5] = test system: army worm (Spodoptera exigua) caterpillars; test: Spodoptera exigua test (cabbage leaves dipped); format: in vivo; details: kill
Description: as §2, with “army worm (Spodoptera exigua)” for “cabbage moth (Plutella xylostella)”

[6] = test system: army worm (Spodoptera frugiperda) caterpillars; test: Spodoptera frugiperda test (cabbage leaves dipped); format: in vivo; details: 168 h, kill, 100 ppm active compound, 7 d, read-out: Efficacy in % after 7 d
Description: as §2, with “army worm (Spodoptera frugiperda)” for “cabbage moth (Plutella xylostella)”

Lucilia cuprina larvae = test: Blowfly larvae test/development-inhibiting effect; format: in vivo; details: for mortality at 100 ppm: 100 ppm active compound; for mortality at 20 ppm: 20 ppm active compound
Description: 20 mg of active compound are dissolved in 1 ml of dimethyl sulphoxide; lower concentrations are prepared by dilution with distilled water.
About 20 Lucilia cuprina larvae are introduced into a test tube containing about 1 cm^3 of horse meat and 0.5 ml of the test preparation of active compound. After 24 and 48 hours, the activity of the preparation is determined. The test tubes are transferred to beakers with their bases covered with sand. After a further 14 days, the test tubes are removed and the pupae/flies are counted.
The effect of the preparation is assessed according to the number of flies which have hatched after 1.5 times the development period of an untreated control. 100% means that no flies have hatched; 0% means that all of the flies have hatched normally.

[7] = test system: greenhouse red spider mite (Tetranychus urticae); test: Tetranychus test (OP resistant/dip treatment); format: in vivo; details: kill of spider mites, 100 ppm active compound
Description: [table] To produce a suitable preparation of active compound, 1 part by weight of active compound is mixed with the stated amounts of solvent and emulsifier, and the concentrate is diluted with emulsifier-containing water to the desired concentration. Bean plants (Phaseolus vulgaris) which are heavily infested by all stages of the greenhouse red spider mite (Tetranychus urticae) are dipped into a preparation of active compound of the desired concentration. After the desired period of time, the effect in % is determined. 100% means that all spider mites have been killed; 0% means that none of the spider mites has been killed.

[8] = test system: Heliothis virescens caterpillars; test: Heliothis virescens test (soya bean shoots dipped); format: in vivo; details: kill, 100 ppm active compound
Description: [table] To produce a suitable preparation of active compound, 1 part by weight of active compound is mixed with the stated amounts of solvent and emulsifier, and the concentrate is diluted with emulsifier-containing water to the desired concentration. Soya bean shoots (Glycine max) are treated by being dipped into the preparation of active compound of the desired concentration and are populated with Heliothis virescens caterpillars whilst the leaves are still moist. After the desired period of time, the kill in % is determined. 100% means that all caterpillars have been killed; 0% means that none of the caterpillars has been killed.

[9] = test system: cotton aphid (Aphis gossypii); test: Aphis gossypii test (cotton leaves dipped); format: in vivo; details: kill, 100 ppm active compound
Description: as §1, with “Cotton leaves (Gossypium hirsutum) heavily infested by the cotton aphid (Aphis gossypii)” for “Soya bean shoots (Glycine max)”, “concentration.” for “concentration and are populated with caterpillars of the cotton bollworm (Heliothis armigera) whilst the leaves are still moist.”, “aphids” for “caterpillars”

[10] = test system: fruit tree red spider mite (Panonychus ulmi); test: Panonychus test (plum trees dipped); format: in vivo; details: kill of spider mites, 100 ppm active compound
Description: To produce a suitable preparation of active compound, 1 part by weight of active compound is mixed with the stated amounts of solvent and emulsifier, and the concentrate is diluted with emulsifier-containing water to the desired concentration.
Plum trees (Prunus domestica) about 30 cm high which are heavily infested by all stages of the fruit tree red spider mite (Panonychus ulmi) are dipped into a preparation of active compound of the desired concentration.
After the desired period of time, the effect in % is determined. 100% means that all spider mites have been killed; 0% means that none of the spider mites has been killed.

[11] = reversed-phase HPLC column (C18); HPLC, acidic range pH 2.3, marked a)
[12] = reversed-phase HPLC column (C18); HPLC, neutral range pH 7.5, marked b)
[13] = 336 h, 14 d, inhibition of fly hatching, read-out: % Activity/kill (14 d)

| Compound | chromatographic logP [1, 11] | chromatographic logP [1, 12] | Efficacy in % after 7 d [2] [%] | pest or weed control at 100 ppm [3] [%] | Efficacy in % after 7 d ([4]; 20 ppm active compound) [%] | Efficacy in % after 7 d ([5]; 20 ppm active compound) [%] | pest or weed control at 100 ppm [6] [%] | mortality at 100 ppm (Lucilia cuprina larvae; 48 h, read-out: % Activity/kill (48 h)) [%] | mortality at 20 ppm (Lucilia cuprina larvae; [13]) [%] | pest or weed control at 20 ppm ([3]; 20 ppm active compound) [%] | Efficacy in % after 7 d [7] [%] | mortality at 100 ppm (Lucilia cuprina larvae; [13]) [%] | Efficacy in % after 7 d [8] [%] | Efficacy in % after 7 d ([4]; 100 ppm active compound) [%] | Efficacy in % after 7 d ([5]; 100 ppm active compound) [%] | Efficacy in % after 6 d [9] [%] | Efficacy in % after 7 d [10] [%] |
| --- | --- | --- | --- | --- | --- | --- | --- | --- | --- | --- | --- | --- | --- | --- | --- | --- | --- |
| Fc1cccc(F)c1C1=NC(c2ccc(-c3ccc(OCC4CC4)nc3)cc2)CC1 (stereo not drawn) [compound 25] | 3.48 | 4.67 | 100 | 100 | 100 | 100 | 100 | 100 | 100 |  |  |  |  |  |  |  |  |
| Fc1cccc(F)c1C1=NC(c2ccc(-c3ccc(OC4CCC4)nc3)cc2)CC1 (stereo not drawn) [compound 19] | 3.66 | 4.9 |  |  |  |  | 100 |  | 100 | 100 | 95 | 100 |  |  |  |  |  |
| CCOc1ccc(-c2ccc(C3CCC(c4c(F)cccc4F)=N3)cc2)cn1 (stereo not drawn) [No. 1, 5-{4-[5-(2,6-difluorophenyl)-3,4-dihydro-2H-pyrrol-2-yl]phenyl}-2-ethoxypyridine] | 2.92 |  |  | 100 |  |  | 100 |  |  |  |  |  |  |  |  |  |  |
| CCSc1ccc(-c2ccc(C3CCC(c4c(F)cccc4F)=N3)cc2)cn1 (stereo not drawn) [compound 4] | 3.29 | 4.54 |  | 100 |  |  | 100 |  |  |  | 95 | 100 | 100 | 100 | 100 |  |  |
| CC(C)Sc1ccc(-c2ccc(C3CCC(c4c(F)cccc4F)=N3)cc2)cn1 (stereo not drawn) [compound 8] | 3.8 | 4.96 |  | 100 |  |  | 100 |  |  |  | 98 |  | 100 | 100 | 100 |  |  |
| Fc1cccc(F)c1C1=NC(c2ccc(-c3ccc(OC4CCCC4)nc3)cc2)CC1 (stereo not drawn) [compound 21] | 3.99 | 5.34 |  | 100 |  |  | 100 |  |  |  | 95 |  |  |  |  |  |  |
| CCCOc1ccc(-c2ccc(C3CCC(c4c(F)cccc4F)=N3)cc2)cn1 (stereo not drawn) [compound 5] | 3.42 | 4.77 |  | 100 |  |  | 100 |  |  |  | 98 |  | 100 | 100 | 100 | 99 |  |
| CC(C)Oc1ccc(-c2ccc(C3CCC(c4c(F)cccc4F)=N3)cc2)cn1 (stereo not drawn) [compound 7] | 3.42 | 4.73 |  | 100 |  |  | 100 |  |  |  |  |  | 100 | 100 | 100 | 99 | 100 |
| CCOc1ccc(Br)cn1 [III-1, 5-bromo-2-ethoxypyridine] | 2.92 |  |  |  |  |  |  |  |  |  |  |  |  |  |  |  |  |

Source: patent US7115603B2, “A1-pyrrolines” (priority 2001, dated 2006)
